According to US11795181B2, “Basic copper gluconate” (JOST CHEMICAL CO., priority 2020, dated 2023):

What was measured:
[1] = Aqueous solubility; assay type: physicochemical; settings: in water
Source text: However, at higher concentrations (i.e., 30% and above), solutions are prone to secondary redox reactions if left to sit for prolonged periods in the open air. Copper (II) slowly oxidizes gluconic acid producing a red precipitate of cuprous oxide (Cu2O). […] This is less evident in the 25% solution of basic copper gluconate than in the remaining, higher percentage, solutions.

[2] = background statement; cited from earlier work

| SMILES | water solubility [1] | aqueous solubility (in words) [2] |
| --- | --- | --- |
| O=C([O][Cu][OH])C(O)C(O)C(O)C(O)CO (centres unmarked) [Basic copper gluconate] | over 50 g/100 g water | – |
| O=C([O-])[C@H](O)[C@@H](O)[C@H](O)[C@H](O)CO.O=C([O-])[C@H](O)[C@@H](O)[C@H](O)[C@H](O)CO.[Cu+2] [copper gluconate, Copper gluconate] | – | excellent aqueous solubility |
